Earlier results on 1 compound are cited in patent publication US20120035233A1 (priority 2009, published 2012).

Read-outs that look alike come from different tables or passages of the source.

As to `Clc1ccc(COC(Cn2ccnc2)c2ccc(Cl)cc2Cl)c(Cl)c1` (centres unmarked) [Miconazole Nitrate, 1-[2-(2,4-Dichlorophenyl)-2-[(2,4-dichlorophenyl)methoxy]ethyl]-1H-imidazole], the solubility result reads like this: (chloroform) “slightly soluble”; (ethanol (95%)) “slightly soluble”; (ether) “very slightly soluble”; (methanol) “freely soluble”; (water) “very slightly soluble”.
